The source of these data is patent US5820881A, “Microspheres of diamide-dicarboxylic acids” (Emisphere Technologies, Inc., priority 1995, dated 1998).

Molecules are shown by their SMILES. “Also recorded” adds a separate entry of the source. Where a name gives a salt, the structure may show the parent alone. Read-outs that look alike come from different tables or passages of the source.

Common to all, as to format: physicochemical
The nature of data set [1]: Concentration dependence of microsphere formation (turbidity, % transmittance at 600 nm). As to conditions: for Concentration of amide above which a dense suspension (% T < 0.5) of microspheres is formed: 500 mM citric acid (pH 2.4). Here is the method: A stock solution containing the lithium salt of the diamide prepared according to the method of Example 4 was prepared by stepwise addition of exactly two equivalents of a standardized solution of LiOH (stored under argon to prevent precipitation of lithium carbonate). The final concentration of the dilithium salt of the diamine was 100 mM, and the pH was always between 7.0 and 8.0. The solution was filtered through a 0.2 μm membrane prior to use. An appropriate amount of the 100 mM stock solution was diluted with deionized water to 500 μL. Microsphere formation was then initiated by addition of an equal volume of 1M citric acid, so that the final concentration ranged from 0 to 50 mM dilithium diamide in 500 mM citric acid with the pH below 2.5. Turbidity was assessed over this range of concentrations by measuring % transmittance at 600 nm. […]
(§1) Each of the compounds of Examples 4-6 and 15 was evaluated by monitoring the change in the solution turbidity, while altering the pH at a fixed Phe amide concentration or by holding the pH constant and varying the concentration of the amide substrate. Each concentration dependence was determined in 500 mM citric acid from a plot of the solution transmittance (% T) vs. concentration. […] The influence of pH on solution turbidity was studied in solutions containing 50 mM in 500 mM lithium citrate buffers. The percent transmittance (% T) was <0.5% at pH 2.67 and >95% at pH 3.26. The pKas were determined by titration of each Phe amide substrate. As expected, the pKas of these Phe diamide diacids were all very similar.

A short description of data set [2]: pKa determination by titration. Here is the method: as §1
Data set [3] in a line: pH dependence of microsphere formation (turbidity, % transmittance at 600 nm). The following applies: for pH at which % T is > 95%: amide concentration 50 mM in 500 mM Li citrate. The procedure:
500 μL of 100 mM dilithium diamide solution prepared according to the method of Example 21 was mixed with an equal volume of one of a series of 1M lithium citrate buffers containing between 0 to 1 equivalent of lithium hydroxide so that the final measured pH of the mixture ranged from ca. 2.4 to 4.0. Turbidity was assessed over this pH range by measuring % transmittance at 600 nm.
The method of Example 25 was followed substituting the bis-amide dicarboxylic acid prepared according to the method of Example 5.
The method of Example 25 was followed substituting the bis-amide dicarboxylic acid prepared according to the method of Example 6.
The method of Example 25 was followed substituting the bis-amide dicarboxylic acid prepared according tot he method of Example 15.
as §1

Data set [4] can be described thus: Microsphere formation (Li2CO3 solution mixed with aqueous citric acid; microscopic examination). The following applies: for Microsphere formation / self-assembly: aqueous salt solution + citric acid; for Diameter of spheres: from 10 μm to submicrons, light microscopy. Here is the method: The bis-amide dicarboxylic acid prepared according to the method of Example 4 was dissolved in 0.1 mL of aqueous Li2 CO3 (0.1M) to yield a clear solution of the lithium salt in deionized water. 50 μL of the 0.1M solution was mixed with 50 μL of 1M aqueous citric acid and shaken. A white suspension was generated.
The method of Example 17 was followed, substituting the bis-amide dicarboxylic acid prepared according to the method of Example 5. A white suspension was generated.
The method of Example 17 was followed, substituting the bis-amide dicarboxylic acid prepared according to the method of Example 6. A white suspension was generated.
The method of Example 17 was followed, substituting the bis-amide dicarboxylic acid prepared according to the method of Example 15. A white suspension was generated.

Data set [5] can be described thus: SEM/TEM examination of microcapsules (tannic acid / OsO4 fixation). The procedure:
The sodium salt of the bis-amide dicarboxylic acid of Example 6 was prepared. A white suspension was prepared by combining 100 μL of 0.43M citric acid and 50 μL of a 0.1M aqueous solution of the sodium salt of the diamide. The aqueous suspension was deposited on polylysine-coated glass coverslips and fixed with 2% OsO4 for 4 hours. The sample was washed with distilled water, air dried and sputter coated with gold. SEM photographs are illustrated in FIGS. 3a and 3b.
A white suspension was also prepared by adding a solution containing 50 μL of a 0.86M citric acid and 50 μL of 3 wt. % tannic acid to 50 μL of a 100 mM aqueous solution of the sodium salt of the diamide. The pH was lowered from 7.7 to 2.4. The aqueous solution was deposited on a Nucleopore filter and fixed with 4% OsO4 for 4 hours. The sample was washed with distilled water and 95% EtOH and was air dried. The sample was dispersed in 100% LR white resin and polymerized in an oven at 60° C. TEM photographs are illustrated in FIG. 4.
Estimates of the microcapsule shell thickness (150 nm) would require approximately 100 molecules of the diamide of Example 6 oriented end-to-end to traverse the microcapsule shell. However, a stacking of the bis amides seems more likely. A stacked array would allow for a greater number of assembled tetrapeptides to traverse the capsule shell. […] However, some tannic acid may be intercalated in the microsphere wall.

As for `O=C(CC(=O)N[C@@H](Cc1ccccc1)C(=O)O)N[C@@H](Cc1ccccc1)C(=O)O` [Example 4, bis(Nα-amido-L-phenylalanine) malonate], the “Concentration of amide above which a dense suspension (% T < 0.5) of microspheres is formed” value in data set [1] stood at 30000 µM. Further, the “% transmittance, clear solution” value in data set [1] (500 mM citric acid, before transition at 30 mM, 600 nm) is given as above 95 % T. For the same compound, in data set [1] (500 mM citric acid, diamide above 30 mM, 600 nm), the “% transmittance, dense suspension of microcapsules” value is reported as 0.2 % T. The pKa in data set [2] (read-out: pKa1) was 3.67. In addition, in data set [2] (read-out: pKa2), the pKa amounted to 4.7. Further, the “Percent transmittance (% T) at pH 2.67” value in data set [3] (50 mM in 500 mM lithium citrate buffers, pH 2.67) was below 0.5%. In addition, the “Percent transmittance (% T) at pH 3.26” value in data set [3] (50 mM in 500 mM lithium citrate buffers, pH 3.26) was above 95%. Moreover, the “pH at which % T is > 95%” value in data set [3] is recorded as 3.26. Also, the “Estimated number of diamide molecules per one anionic species sufficient to abort assembly” value in data set [3] (estimated from pKa and pH measurements) is around 30 molecules. In data set [4], the “Microsphere formation / self-assembly” value is reported as “formation of tiny spheres; also recorded: generated microcapsules” and the Diameter of spheres is listed as at most 10 μm.
Turning to `CC(C)(C(=O)N[C@@H](Cc1ccccc1)C(=O)O)C(=O)N[C@@H](Cc1ccccc1)C(=O)O` [Example 5, bis(Nα-amido-L-phenylalanine) 1,1-dimethyl malonate], the “Concentration of amide above which a dense suspension (% T < 0.5) of microspheres is formed” value in data set [1] was determined as 25000 µM. For the same compound, the pKa in data set [2] (read-out: pKa1) turned out to be 3.55. Besides, in data set [2] (read-out: pKa2), the pKa is 4.62. Also, the “pH at which % T is > 95%” value in data set [3] was determined as 3.26. In addition, in data set [4], the “Microsphere formation / self-assembly” value is listed as “formation of tiny spheres” and the Diameter of spheres was at most 10 μm.
For `O=C(O)[C@H](Cc1ccccc1)NC(=O)C1(C(=O)N[C@@H](Cc2ccccc2)C(=O)O)CC1` [Example 6, bis(Nα-amido-L-phenylalanine) 1,1 -cyclopropane dicarboxylate], in data set [1], the “Concentration of amide above which a dense suspension (% T < 0.5) of microspheres is formed” value stood at 13000 µM. The pKa in data set [2] (read-out: pKa1) was found to be 3.53. Besides, the pKa in data set [2] (read-out: pKa2) was found to be 4.5. Further, the “pH at which % T is > 95%” value in data set [3] was found to be 3.26. Moreover, in data set [4], the “Microsphere formation / self-assembly” value was “formation of tiny spheres” and the Diameter of spheres is at most 10 μm. Moreover, in data set [5], the “Incorporation of tannic acid into the microsphere shell” value was “Little tannic acid was incorporated into the microsphere shell”. In addition, the “Molecules oriented end-to-end required to traverse the microcapsule shell” value in data set [5] (shell thickness 150 nm) is listed as “approximately 100 molecules”. The “Estimated microcapsule shell thickness” value in data set [5] (sodium salt, citric acid + tannic acid, TEM) is around 150 nm.
Take `O=C(N[C@@H](Cc1ccccc1)C(=O)O)C(=O)N[C@@H](Cc1ccccc1)C(=O)O` [Example 8, bis(Nα-amido-L-phenylalanine) oxalate]: the “Microsphere formation / self-assembly” value in data set [4] was “neither the oxalic derivative of Example 8 nor the succinic analogue of Example 12 did; also recorded: did not form microspheres”.
For the compound `O=C(O)CCC(=O)N[C@@H](Cc1ccccc1)C(=O)O` [Example 11, (Nα-amido-L-phenylalanine) monosuccinate], the “Microsphere formation / self-assembly” value in data set [4] is “did not form microspheres”.
With `O=C(CCC(=O)N[C@@H](Cc1ccccc1)C(=O)O)N[C@@H](Cc1ccccc1)C(=O)O` [Example 12, bis(Nα-amido-L-phenylalanine) succinate], in data set [4], the “Microsphere formation / self-assembly” value was “neither the oxalic derivative of Example 8 nor the succinic analogue of Example 12 did; also recorded: does not self assemble; also recorded: did not form microspheres”.
Consider `O=C(/C=C\C(=O)N[C@@H](Cc1ccccc1)C(=O)O)N[C@@H](Cc1ccccc1)C(=O)O` [Example 15, bis(Nα-amido-L-phenylalanine) maleate], for which the “Concentration of amide above which a dense suspension (% T < 0.5) of microspheres is formed” value in data set [1] is 23000 µM. In addition, in data set [2] (read-out: pKa1), the pKa is 3.7. The pKa in data set [2] (read-out: pKa2) stood at 4.87. Also, in data set [3], the “pH at which % T is > 95%” value was 3.26. In addition, in data set [4], the “Microsphere formation / self-assembly” value was “formation of tiny spheres; also recorded: generated microcapsules” and the Diameter of spheres is recorded as at most 10 μm.
Regarding `O=C(/C=C/C(=O)N[C@@H](Cc1ccccc1)C(=O)O)N[C@@H](Cc1ccccc1)C(=O)O` [Example 16, bis(Nα-amido-L-phenylalanine) fumarate], the “Microsphere formation / self-assembly” value in data set [4] was “did not form microspheres”.
